Measurements: ChEMBL document CHEMBL4041467, “Synthesis of novel 15-membered 8a-azahomoerythromycin A acylides: Consequences of structural modification at the C-3 and C-6 position on antibacterial activity” (Eur J Med Chem, 2017)
Converted amounts (≈) assume the structure as drawn.

Key:
Streptococcus pyogenes [1] = assay: Antibacterial activity against erythromycin susceptible Streptococcus pyogenes by agar microdilution method; assay type: functional
Streptococcus pyogenes [2] = assay: Antibacterial activity against Mef-mediated macrolide efflux resistant Streptococcus pyogenes by agar microdilution method; assay type: functional
Staphylococcus aureus [3] = assay: Antibacterial activity against constitutively macrolide/lincosamide/streptogramin B-resistant Staphylococcus aureus by agar microdilution method; assay type: functional
Streptococcus pneumoniae [4] = assay: Antibacterial activity against erythromycin susceptible Streptococcus pneumoniae by agar microdilution method; assay type: functional
Staphylococcus aureus [5] = assay: Antibacterial activity against erythromycin susceptible Staphylococcus aureus by agar microdilution method; assay type: functional
Streptococcus pneumoniae [6] = assay: Antibacterial activity against constitutively macrolide/lincosamide/streptogramin B-resistant Streptococcus pneumoniae by agar microdilution method; assay type: functional
Streptococcus pneumoniae [7] = assay: Antibacterial activity against Mef-mediated macrolide efflux resistant Streptococcus pneumoniae by agar microdilution method; assay type: functional
Haemophilus influenzae = assay: Antibacterial activity against Haemophilus influenzae by agar microdilution method; assay type: functional
Streptococcus pyogenes [8] = assay: Antibacterial activity against constitutively macrolide/lincosamide/streptogramin B-resistant Streptococcus pyogenes by agar microdilution method; assay type: functional
Staphylococcus aureus [9] = assay: Antibacterial activity against inducibly macrolide/lincosamide/streptogramin B-resistant Staphylococcus aureus by agar microdilution method; assay type: functional
[10] = Metabolic stability in rat liver microsomes assessed as parent compound remaining at 1 uM after 60 mins in presence of NADP by LC-MS/MS analysis; assay type: ADME, microsome; settings: read-out: Stability
[11] = Metabolic stability in mouse liver microsomes assessed as parent compound remaining at 1 uM after 60 mins in presence of NADP by LC-MS/MS analysis; assay type: ADME, microsome; settings: read-out: Stability
[12] = Metabolic stability in human liver microsomes assessed as parent compound remaining at 1 uM after 60 mins in presence of NADP by LC-MS/MS analysis; assay type: ADME, microsome; settings: read-out: Stability

SMILES | MIC (Streptococcus pyogenes [1]) [µg/mL] | MIC (Streptococcus pyogenes [2]) [µg/mL] | MIC (Staphylococcus aureus [3]) [µg/mL] | MIC (Streptococcus pneumoniae [4]) [µg/mL] | MIC (Staphylococcus aureus [5]) [µg/mL] | MIC (Streptococcus pneumoniae [6]) [µg/mL] | MIC (Streptococcus pneumoniae [7]) [µg/mL] | MIC (Haemophilus influenzae) [µg/mL] | MIC (Streptococcus pyogenes [8]) [µg/mL] | MIC (Staphylococcus aureus [9]) [µg/mL] | remaining at 1 h, 1 µM [10] [%] | remaining at 1 h, 1 µM [11] [%] | remaining at 1 h, 1 µM [12] [%]
C=CCO[C@]1(C)C[C@@H](C)NC(=O)[C@H](C)[C@@H](O)[C@](C)(O)[C@@H](CC)OC(=O)[C@H](C)[C@@H](OC(=O)CCNC(C)C(=O)Nc2cnc3ccccc3c2)[C@H](C)[C@H]1O[C@@H]1O[C@H](C)C[C@H](N(C)C)[C@H]1O (stereo partly drawn) | ≤ 0.125 | 1 (≈ 1.11 µM) | > 64 | ≤ 0.125 | 0.5 (≈ 0.555 µM) | 16 (≈ 17.8 µM) | 0.25 (≈ 0.278 µM) | 4 (≈ 4.44 µM) | 8 (≈ 8.89 µM) | 1 (≈ 1.11 µM) | – | – | –
C=CCO[C@]1(C)C[C@@H](C)NC(=O)[C@H](C)[C@@H](O)[C@](C)(O)[C@@H](CC)OC(=O)[C@H](C)[C@@H](OC(=O)CCN2CCN(c3ccc(F)cc3)CC2)[C@H](C)[C@H]1O[C@@H]1O[C@H](C)C[C@H](N(C)C)[C@H]1O | 1 (≈ 1.16 µM) | 2 (≈ 2.31 µM) | > 64 | 0.25 (≈ 0.289 µM) | 2 (≈ 2.31 µM) | > 64 | 2 (≈ 2.31 µM) | 16 (≈ 18.5 µM) | > 64 | 4 (≈ 4.62 µM) | – | – | –
CC[C@H]1OC(=O)[C@H](C)[C@@H](OC(=O)CCNCCNc2cc3c(=O)c(C(=O)O)cn(C4CC4)c3cc2Cl)[C@H](C)[C@@H](O[C@@H]2O[C@H](C)C[C@H](N(C)C)[C@H]2O)[C@](C)(OC/C=C/c2cnc3ccccc3n2)C[C@@H](C)NC(=O)[C@H](C)[C@@H](O)[C@]1(C)O | ≤ 0.125 | 1 (≈ 0.881 µM) | > 64 | ≤ 0.125 | 0.5 (≈ 0.441 µM) | 1 (≈ 0.881 µM) | 0.5 (≈ 0.441 µM) | 4 (≈ 3.52 µM) | 16 (≈ 14.1 µM) | 1 (≈ 0.881 µM) | – | – | –
C=CCO[C@]1(C)C[C@@H](C)NC(=O)[C@H](C)[C@@H](O)[C@](C)(O)[C@@H](CC)OC(=O)[C@H](C)[C@@H](OC(=O)CCN2CCN(c3cc4c(=O)c(C(=O)O)cn(C5CC5)c4cc3Cl)CC2)[C@H](C)[C@H]1O[C@@H]1O[C@H](C)C[C@H](N(C)C)[C@H]1O | ≤ 0.125 | 1 (≈ 0.968 µM) | > 64 | ≤ 0.125 | ≤ 0.125 | 4 (≈ 3.87 µM) | 0.5 (≈ 0.484 µM) | 4 (≈ 3.87 µM) | 8 (≈ 7.75 µM) | 0.25 (≈ 0.242 µM) | – | – | –
C=CCO[C@]1(C)C[C@@H](C)NC(=O)[C@H](C)[C@@H](O)[C@](C)(O)[C@@H](CC)OC(=O)[C@H](C)[C@@H](OC(=O)CCNC(C)C(=O)Nc2ccccc2)[C@H](C)[C@H]1O[C@@H]1O[C@H](C)C[C@H](N(C)C)[C@H]1O (stereo partly drawn) | 0.5 (≈ 0.589 µM) | 2 (≈ 2.36 µM) | > 64 | 0.25 (≈ 0.294 µM) | 2 (≈ 2.36 µM) | > 64 | 1 (≈ 1.18 µM) | 16 (≈ 18.8 µM) | > 64 | 4 (≈ 4.71 µM) | – | – | –
C=CCO[C@]1(C)C[C@@H](C)NC(=O)[C@H](C)[C@@H](O)[C@](C)(O)[C@@H](CC)OC(=O)[C@H](C)[C@@H](OC(=O)CCNCCNc2cc3c(cc2F)c(=O)c(C(=O)O)cn3C2CC2)[C@H](C)[C@H]1O[C@@H]1O[C@H](C)C[C@H](N(C)C)[C@H]1O | 0.25 (≈ 0.252 µM) | 0.5 (≈ 0.505 µM) | > 64 | 0.25 (≈ 0.252 µM) | 0.25 (≈ 0.252 µM) | 2 (≈ 2.02 µM) | 0.5 (≈ 0.505 µM) | 2 (≈ 2.02 µM) | 16 (≈ 16.2 µM) | 0.25 (≈ 0.252 µM) | – | – | –
C=CCO[C@]1(C)C[C@@H](C)NC(=O)[C@H](C)[C@@H](OC(=O)C=C)[C@](C)(O)[C@@H](CC)OC(=O)[C@H](C)[C@@H](OC(=O)C=C)[C@H](C)[C@H]1O[C@@H]1O[C@H](C)C[C@H](N(C)C)[C@H]1O | 32 (≈ 43.3 µM) | > 64 | > 64 | 32 (≈ 43.3 µM) | 32 (≈ 43.3 µM) | > 64 | > 64 | > 64 | > 64 | > 64 | – | – | –
C=CCO[C@]1(C)C[C@@H](C)NC(=O)[C@H](C)[C@@H](O)[C@](C)(O)[C@@H](CC)OC(=O)[C@H](C)[C@@H](OC(=O)CCNC(C)Cc2ccc([N+](=O)[O-])cc2)[C@H](C)[C@H]1O[C@@H]1O[C@H](C)C[C@H](N(C)C)[C@H]1O (stereo partly drawn) | ≤ 0.125 | 1 (≈ 1.16 µM) | > 64 | ≤ 0.125 | 1 (≈ 1.16 µM) | > 64 | 0.5 (≈ 0.578 µM) | 8 (≈ 9.25 µM) | > 64 | 1 (≈ 1.16 µM) | – | – | –
C=CCO[C@]1(C)C[C@@H](C)NC(=O)[C@H](C)[C@@H](O)[C@](C)(O)[C@@H](CC)OC(=O)[C@H](C)[C@@H](OC(=O)C=C)[C@H](C)[C@H]1O[C@@H]1O[C@H](C)C[C@H](N(C)C)[C@H]1O | 16 (≈ 23.4 µM) | > 64 | > 64 | 16 (≈ 23.4 µM) | 32 (≈ 46.7 µM) | > 64 | > 64 | > 64 | > 64 | > 64 | – | – | –
C=CCO[C@]1(C)C[C@@H](C)NC(=O)[C@H](C)[C@@H](O)[C@](C)(O)[C@@H](CC)OC(=O)[C@H](C)[C@@H](OC(=O)CCNC(C)C(=O)Nc2ccc([N+](=O)[O-])cc2)[C@H](C)[C@H]1O[C@@H]1O[C@H](C)C[C@H](N(C)C)[C@H]1O (stereo partly drawn) | ≤ 0.125 | 0.5 (≈ 0.559 µM) | > 64 | ≤ 0.125 | 1 (≈ 1.12 µM) | > 64 | 0.25 (≈ 0.28 µM) | 8 (≈ 8.95 µM) | > 64 | 1 (≈ 1.12 µM) | – | – | –
C=CCO[C@]1(C)C[C@@H](C)NC(=O)[C@H](C)[C@@H](O)[C@](C)(O)[C@@H](CC)OC(=O)[C@H](C)[C@@H](OC(=O)CCNCCCCc2ccccc2)[C@H](C)[C@H]1O[C@@H]1O[C@H](C)C[C@H](N(C)C)[C@H]1O | 2 (≈ 2.4 µM) | 2 (≈ 2.4 µM) | > 64 | 0.5 (≈ 0.599 µM) | 2 (≈ 2.4 µM) | > 64 | 4 (≈ 4.8 µM) | 16 (≈ 19.2 µM) | > 64 | 8 (≈ 9.59 µM) | – | – | –
O=C(O)c1cn(C2CC2)c2cc(Cl)c(N3CCNCC3)cc2c1=O | > 64 | > 64 | > 64 | > 64 | > 64 | > 64 | > 64 | > 64 | > 64 | > 64 | – | – | –
C=CCO[C@]1(C)C[C@@H](C)NC(=O)[C@H](C)[C@@H](O)[C@](C)(O)[C@@H](CC)OC(=O)[C@H](C)[C@@H](OC(=O)CCN2CCN(c3ccc4c(c3)c(=O)c(C(=O)O)cn4C3CC3)CC2)[C@H](C)[C@H]1O[C@@H]1O[C@H](C)C[C@H](N(C)C)[C@H]1O | 4 (≈ 4.01 µM) | 16 (≈ 16 µM) | > 64 | 2 (≈ 2 µM) | 4 (≈ 4.01 µM) | 16 (≈ 16 µM) | 4 (≈ 4.01 µM) | 16 (≈ 16 µM) | 32 (≈ 32.1 µM) | 8 (≈ 8.01 µM) | – | – | –
CCOc1ccc2ccc(=O)oc2c1 [ETHOXYCOUMARIN] | – | – | – | – | – | – | – | – | – | – | 57 | 30 | 18
C=CCO[C@]1(C)C[C@@H](C)NC(=O)[C@H](C)[C@@H](O)[C@](C)(O)[C@@H](CC)OC(=O)[C@H](C)[C@@H](OC(=O)CCNC(C)Cc2ccc(OC)cc2)[C@H](C)[C@H]1O[C@@H]1O[C@H](C)C[C@H](N(C)C)[C@H]1O (stereo partly drawn) | 0.25 (≈ 0.294 µM) | 4 (≈ 4.71 µM) | > 64 | 0.5 (≈ 0.588 µM) | 2 (≈ 2.35 µM) | > 64 | 2 (≈ 2.35 µM) | 16 (≈ 18.8 µM) | > 64 | 2 (≈ 2.35 µM) | – | – | –
CC[C@H]1OC(=O)[C@H](C)[C@@H](OC(=O)CCNCCNc2cc3c(=O)c(C(=O)O)cn(C4CC4)c3cc2Cl)[C@H](C)[C@@H](O[C@@H]2O[C@H](C)C[C@H](N(C)C)[C@H]2O)[C@](C)(OC/C=C/c2cccc3ncccc23)C[C@@H](C)NC(=O)[C@H](C)[C@@H](O)[C@]1(C)O | 1 (≈ 0.882 µM) | 4 (≈ 3.53 µM) | > 64 | 0.5 (≈ 0.441 µM) | 1 (≈ 0.882 µM) | 8 (≈ 7.06 µM) | 4 (≈ 3.53 µM) | 8 (≈ 7.06 µM) | 32 (≈ 28.2 µM) | 2 (≈ 1.76 µM) | – | – | –
CC[C@H]1OC(=O)[C@H](C)[C@@H](OC(=O)CCNCCNc2cc3c(=O)c(C(=O)O)cn(C4CC4)c3cc2Cl)[C@H](C)[C@@H](O[C@@H]2O[C@H](C)C[C@H](N(C)C)[C@H]2O)[C@](C)(OC/C=C/c2ccnc3ccccc23)C[C@@H](C)NC(=O)[C@H](C)[C@@H](O)[C@]1(C)O | 0.5 (≈ 0.441 µM) | 4 (≈ 3.53 µM) | > 64 | 0.25 (≈ 0.221 µM) | 0.5 (≈ 0.441 µM) | 4 (≈ 3.53 µM) | 1 (≈ 0.882 µM) | 16 (≈ 14.1 µM) | 32 (≈ 28.2 µM) | 0.5 (≈ 0.441 µM) | – | – | –
C=CCO[C@]1(C)C[C@@H](C)NC(=O)[C@H](C)[C@@H](O)[C@](C)(O)[C@@H](CC)OC(=O)[C@H](C)[C@@H](OC(=O)CCNC(C)C(=O)Nc2ccc3ncccc3c2)[C@H](C)[C@H]1O[C@@H]1O[C@H](C)C[C@H](N(C)C)[C@H]1O (stereo partly drawn) | ≤ 0.125 | 0.25 (≈ 0.278 µM) | > 64 | ≤ 0.125 | 0.5 (≈ 0.555 µM) | 8 (≈ 8.89 µM) | 0.25 (≈ 0.278 µM) | 4 (≈ 4.44 µM) | 4 (≈ 4.44 µM) | 0.5 (≈ 0.555 µM) | – | – | –
C=CCO[C@]1(C)C[C@@H](C)NC(=O)[C@H](C)[C@@H](O)[C@](C)(O)[C@@H](CC)OC(=O)[C@H](C)[C@@H](OC(=O)CCNCCCc2ccccc2)[C@H](C)[C@H]1O[C@@H]1O[C@H](C)C[C@H](N(C)C)[C@H]1O | 2 (≈ 2.44 µM) | 8 (≈ 9.76 µM) | > 64 | 1 (≈ 1.22 µM) | 2 (≈ 2.44 µM) | > 64 | 4 (≈ 4.88 µM) | 16 (≈ 19.5 µM) | > 64 | 4 (≈ 4.88 µM) | – | – | –
